How the values were obtained:
[1] = system: respiratory syncytial virus (RSV); experiment: In vitro inhibition of viral infectivity, RSV (Example 46); type: cell-based; conditions: co-incubation of virus with HMO at 1 or 10 mg/mL
Protocol: In this Example, the effect of purified human milk oligosaccharides (HMO) on in vitro inhibition of viral infectivity is analyzed.
Samples are prepared by co-incubation of a uniform virus dose of from about 500 units/mL to about 1,000 units/mL of one of three respiratory viruses: (1) respiratory syncytial virus (RSV); (2) human parainfluenza virus (HPIV3); or (3) H1N1 influenza virus with one of the following HMOs: (1) 3′-sialyllactose (3′SL); (2) 6′-sialyllactose (6′SL); (3) 3′-fucosyllactose (3′FL); (4) 2′-fucosyllactose (2′FL); (5) lacto-N-neotetraose (LNnT); or (6) sialic acid (SA). The HMOs are added at concentrations of either 1 mg/mL or 10 mg/mL.

[2] = system: monocyte-derived cytokines; experiment: Monocyte-derived cytokines in peripheral blood mononuclear cells with or without RSV (Example 49); type: cell-based, Human
Protocol: (§1) Specifically, either 3′SL or 6′SL is added, at concentrations of 0.1 mg/mL, 0.2 mg/mL, or 0.5 mg/mL to fresh peripheral blood mononuclear cells and incubated at 37° C. in 5% CO2 to pretreat the cells for approximately 24 hours. LNnT is added, at concentrations of 0.1 mg/mL, 0.2 mg/mL, or 1 mg/mL to fresh peripheral blood mononuclear cells and incubated at 37° C. in 5% CO2 to pretreat the cells for approximately 24 hours. Lactose is included as a carbohydrate control. Matched endotoxin unit concentration controls are included to allow differentiation of ingredient effects from inherent low levels of endotoxin. Some variables are then incubated with RSV at a multiplicity of infection (MOI) of 0.1 for approximately 1 hour at 37° C. in 5% in CO2. Uninfected control variables are incubated with medium for approximately 1 hour at 37° C. in 5% CO2. Supernatants are collected at 24 and 48 hours post-infection.
(§2) Cytokines are measured in supernatants for each variable at 24 and 48 hours to assess the effects of HMOs on the early immune response to RSV. Cytokines are measured using custom Bio-Plex Human cytokine kits from Bio-Rad. Results for interferon-inducible protein 10 (IP-10, also known as CXCL 10) are shown in FIGS. 3 and 4 for 3′SL and 6′SL, and in FIGS. 5 and 6 for LNnT. IP-10 is a CXC chemokine that attracts, binds to and activates the CXCR3 receptor on natural killer cells and memory T cells. IP-10 is expressed by monocytes and a number of other cells, and is induced by interferon. A positive correlation exists between RSV clinical disease severity in children (as measured by: length of hospital stay, fever, and number of days supplemental O2 is required) and serum IP-10. Therefore, a decrease in IP-10 signals a decrease in severity of RSV disease experienced.

[3] = system: interferon-inducible protein 10 (IP-10); experiment: IP-10 in supernatants of RSV-infected peripheral blood mononuclear cells (Example 49); type: cell-based, Human; conditions: for IP-10 in virus-infected variables, both donors: RSV MOI 0.1, 0.1-0.5 mg/mL (LNnT 0.1-1 mg/mL); for IP-10 level relative to uninfected controls: RSV-infected PBMC; for dampening virus-induced inflammation as measured by a decrease in IP-10, comparison: compared with 3′SL; for reducing inflammation caused by RSV: pretreatment for 24 hours
Protocol: as §1, §2

rotavirus = experiment: NSP4 mRNA expression in rotavirus-treated ileal loops of piglets (Example 50); type: in vivo; conditions: HMO about 2 mg/mL plus rotavirus, 6 hours, vs RV and media
Protocol: Specifically, HMO and nucleotide treatment within the ileal lumen of both healthy and acutely rotavirus-infected piglets is analyzed.
Two groups of piglets (both n=9) are fed from age 48 hours to age 21 days either a low nucleotide formula comprising about 72 mg/L of a nucleotide mixture or a high nucleotide formula comprising about 320 mg/L of a nucleotide mixture.
At day 21, a midline laparotomy is performed and six loops of ilium are isolated in situ. Each loop is about 10 cm long and is followed by an inter-loop segment of about 2 cm. […]
The following treatments are injected into the loops: media; LNnT; an acidic HMO mixture comprising about 40 wt % 6′SL, about 10 wt % 3′SL, and about 50 wt % sialic acid; media and rotavirus; LNnT and rotavirus; and the acidic HMO mixture comprising about 40 wt % 6′SL, about 10 wt % 3′SL, and about 50 wt % sialic acid and rotavirus. […] Each loop is treated for 6 hours, and post-treatment reverse transcriptase products from ilium mucosal cells are analyzed by quantitative real-time PCR in TaqMan gene expression assays of the target genes NSP4, IL-8, and TNF-α. […] The expression levels of genes of interest are standardized to RPL19 mRNA and expressed as fold differences which correspond to a ratio to the mean value for the control group.

H1N1 influenza virus [4] = type: cell-based; conditions: for IC50 (mg HMO/mL) H1N1 Influenza: co-incubation of virus with HMO at 1 or 10 mg/mL
interleukin 10 (IL-10) = experiment: IL-10 in supernatants of peripheral blood mononuclear cells with or without RSV (Example 49); type: cell-based, Human; conditions: in the presence or absence of RSV
Protocol: as §1
Cytokines are measured in supernatants for each variable at 24 and 48 hours to assess the effects of HMOs on the early immune response to RSV. Cytokines are measured using custom Bio-Plex Human cytokine kits from Bio-Rad. […] A positive correlation exists between RSV clinical disease severity in children (as measured by: length of hospital stay, fever, and number of days supplemental O2 is required) and serum IP-10. […]

[5] = system: human parainfluenza virus (HPIV3); type: cell-based; conditions: co-incubation of virus with HMO at 1 or 10 mg/mL
H1N1 influenza virus [6] = type: cell-based; conditions: HMO at 10 mg/mL, MDCK cells, FIG. 1
[7] = in the presence or absence of the virus

SMILES | IC50 (mg HMO/mL) RSV [1] | immunomodulation, production of monocyte-derived cytokines [2, 7] | IP-10 in virus-infected variables, both donors ([3]; 24 hours pretreatment) | IP-10 level relative to uninfected controls [3] | dampening virus-induced inflammation as measured by a decrease in IP-10, comparison [3] | reducing inflammation caused by RSV [3] | NSP4 expression (rotavirus; high nucleotide formula fed group (about 320 mg/L)) | NSP4 expression (rotavirus; low nucleotide formula fed group (about 72 mg/L)) | IC50 (mg HMO/mL) H1N1 Influenza (H1N1 influenza virus [4]) | IL-10 concentration (interleukin 10 (IL-10)) | IC50 (mg HMO/mL) HPIV3 [5] | RSV-induced IP-10, Donor B ([3]; Donor B, 24 hours pretreatment, RSV MOI 0.1) | RSV-induced IP-10, Donor E ([3]; Donor E, 24 hours pretreatment, RSV MOI 0.1) | anti-viral activity, H1N1 influenza virus (H1N1 influenza virus [4]; HMO at 1 mg/mL) | inhibition of virus infectivity (H1N1 influenza virus [6]) | immunomodulation, production of monocyte-derived cytokines ([2]; in the absence of the virus)
CC(=O)N[C@H]1[C@H](O[C@H]2[C@@H](O)[C@@H](CO)O[C@@H](O[C@H]3[C@H](O)[C@@H](O)C(O)O[C@@H]3CO)[C@@H]2O)O[C@H](CO)[C@@H](O[C@@H]2O[C@H](CO)[C@H](O)[C@H](O)[C@H]2O)[C@@H]1O (mixture of isomers) [LNnT, lacto-N-neotetraose] | >10 mg HMO/mL | immunomodulatory | clearly downregulates IP-10 | reduce IP-10 to levels found in uninfected controls | more effective than 3′SL | effective in reducing inflammation caused by RSV | reduced NSP4 expression | reduced NSP4 expression | >10 mg HMO/mL | increases IL-10 concentration in a dose-dependent manner |  |  |  |  |  | 
CC(=O)N[C@H]1[C@H]([C@H](O)[C@H](O)CO)O[C@@](O[C@H]2[C@@H](O)[C@@H](CO)O[C@@H](O[C@H]3[C@H](O)[C@@H](O)C(O)O[C@@H]3CO)[C@@H]2O)(C(=O)O)C[C@@H]1O (some centres unmarked) [3′SL, 3′-sialyllactose] | >10 mg HMO/mL | immunomodulatory | dampen RSV-induced IP-10 |  |  | effective in reducing inflammation caused by RSV |  |  | ~5 mg HMO/mL |  | >10 mg HMO/mL | not effective | downregulates RSV-induced IP-10 | inhibited |  | 
CC(=O)N[C@H]1[C@H]([C@H](O)[C@H](O)CO)O[C@@](OC[C@H]2O[C@@H](O[C@H]3[C@H](O)[C@@H](O)[C@H](O)O[C@@H]3CO)[C@H](O)[C@@H](O)[C@H]2O)(C(=O)O)C[C@@H]1O [6′SL, 6′-sialyllactose] | >10 mg HMO/mL |  | clearly downregulates IP-10 | reduce IP-10 to levels found in uninfected controls | more effective than 3′SL | effective in reducing inflammation caused by RSV |  |  | ~10 mg HMO/mL | increases interleukin 10 (IL-10) concentration in a dose-dependent manner | >10 mg HMO/mL |  |  |  | approximately 60% | immunomodulatory
